Measurements published in patent US10258602B2 (Ocera Therapeutics, Inc., priority 2007, dated 2019).

Target: human growth hormone secretagogue receptor (hGHS-R1a) (Homo sapiens, UniProt Q92847)
Assay: Competitive radioligand binding assay (ghrelin receptor), standard method A
Settings: binding activity at the human ghrelin receptor, standard method A
Excerpt: A competitive binding assay at the human growth hormone secretagogue receptor (hGHS-R1a) can be carried out analogously to assays described in the literature. (Bednarek, M. A.; et al. J. Med. Chem. 2000, 43, 4370-4376; Palucki, B. L.; et al. Bioorg. Med. Chem. Lett. […], 11, 1955-1957.) See also U.S. patent application Ser. Nos. 11/149,512 and 11/149,731. Binding activity at the gherlin receptor for representative compounds of the present invention is shown in the Examples below.

Chain of human growth hormone secretagogue receptor (hGHS-R1a) (Q92847 whole entry): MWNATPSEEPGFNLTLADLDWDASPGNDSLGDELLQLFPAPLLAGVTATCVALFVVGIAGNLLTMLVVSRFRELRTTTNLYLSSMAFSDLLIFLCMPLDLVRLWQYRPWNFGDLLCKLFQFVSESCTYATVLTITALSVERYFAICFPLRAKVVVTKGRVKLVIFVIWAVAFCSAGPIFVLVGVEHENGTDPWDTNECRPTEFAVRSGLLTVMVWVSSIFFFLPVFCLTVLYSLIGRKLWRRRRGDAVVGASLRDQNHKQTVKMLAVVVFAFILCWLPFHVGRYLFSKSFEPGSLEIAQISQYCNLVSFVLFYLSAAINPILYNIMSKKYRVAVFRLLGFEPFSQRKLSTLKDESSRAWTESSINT

Row | Structure (SMILES) | Ki [nM]
1 | C[C@@H]1CN[C@@H](C2CC2)C(=O)N(C)[C@H](C)C(=O)N[C@H](Cc2ccc(F)cc2)C(=O)NCCCc2cc(F)c(F)cc2O1 [Compound 950] | ≤ 500
2 | C[C@@H]1C(=O)N[C@H](Cc2ccc(O)cc2)C(=O)NCCCc2nccc3c2O[C@H](CC3)CN[C@@H](C2CC2)C(=O)N1C [Compound 1074] | ≤ 100
3 | C[C@@H]1CN[C@@H](C2CC2)C(=O)N(C)[C@H](C)C(=O)N[C@H](Cc2ccccc2)C(=O)NCCCc2ccccc2O1 [Compound 851] | ≤ 100
4 | CCC[C@@H]1NC[C@@H](C)Oc2ccccc2CCCNC(=O)[C@@H](Cc2ccc(F)cc2)NC(=O)[C@@H](C)N(C)C1=O [Compound 853] | ≤ 100
5 | CC[C@H](C)[C@@H]1NC[C@@H](C)Oc2c(F)cccc2CCCNC(=O)[C@@H](Cc2cccnc2)NC(=O)[C@@H](C)N(C)C1=O [Compound 974] | ≤ 100
6 | CC[C@H](C)[C@@H]1NCCOc2ccccc2CCCNC(=O)[C@@H](Cc2ccccc2)NC(=O)[C@@H](CF)N(C)C1=O [Compound 954] | ≤ 500
7 | CCC[C@@H]1NC[C@H](C)Oc2ccccc2CCCNC(=O)[C@@H](Cc2ccccc2)NC(=O)[C@@H](C)N(C)C1=O [Compound 859] | ≤ 500
8 | CC1CNC(C2CC2)C(=O)N(C)C(C)C(=O)NC(Cc2ccc(O)c(F)c2)C(=O)NCCCc2ccccc2O1 (mixture of isomers) [Compound 1049] | ≤ 100
9 | C[C@@H]1CN[C@@H](C2CC2)C(=O)N(C)[C@H](C)C(=O)N[C@H](Cc2ccccn2)C(=O)NCCCc2ccccc2O1 [Compound 972] | ≤ 100
10 | CC[C@H](C)[C@@H]1NC[C@@H](C)Oc2ccccc2CCCNC(=O)[C@@H](Cc2ccncc2)NC(=O)[C@@H](C)N(C)C1=O [Compound 978] | ≤ 100
11 | CCC[C@@H]1NC[C@@H](C)Oc2ccccc2CCCNC(=O)[C@@H](Cc2ccc(Cl)cc2)NC(=O)[C@@H](C)N(C)C1=O [Compound 863] | ≤ 100
12 | CC[C@H](C)[C@@H]1NC[C@@H](C)Oc2ccccc2CCCNC(=O)[C@@H](Cc2ccccc2)NC(=O)[C@@H](CO)N(C)C1=O [Compound 939] | ≤ 100
13 | CC(C)[C@@H]1CN[C@@H](C2CC2)C(=O)N(C)[C@H](C)C(=O)N[C@H](Cc2ccc(Cl)cc2)C(=O)NCCCc2ccc(F)cc2O1 [Compound 966] | ≤ 500
14 | CC[C@H](C)[C@@H]1NC[C@@H](C)Oc2cc(F)ccc2CCCNC(=O)[C@@H](Cc2ccc(F)cc2)NC(=O)[C@@H](C)N(C)C1=O [Compound 856] | ≤ 500
15 | C[C@@H]1C(=O)N[C@H](Cc2ccccc2)C(=O)NCCCc2ccc(F)cc2OCCN[C@@H](C2CC2)C(=O)N1C [Compound 865] | ≤ 100
16 | C[C@@H]1CN[C@@H](C2CC2)C(=O)N(C)[C@H](C)C(=O)N[C@H](Cc2ccc(O)cc2)C(=O)NCCCc2ncccc2O1 [Compound 1023] | ≤ 100

Row | Structure (SMILES) | Ki [nM]
17 | C[C@@H]1C(=O)N[C@H](Cc2ccccc2)C(=O)NCCCc2cccc3c2OC(CC3)CN[C@@H](C2CC2)C(=O)N1C (some centres unmarked) [Compound 874] | ≤ 100
18 | CC[C@H](C)[C@@H]1NCCOc2cccnc2CCCNC(=O)[C@@H](Cc2ccc(O)cc2)NC(=O)[C@@H](C)N(C)C1=O [Compound 992] | ≤ 100
19 | C[C@@H]1CN[C@@H](C2CC2)C(=O)N(C)[C@H](C)C(=O)N[C@H](Cc2ccc(Cl)cc2)C(=O)NCCCc2c(F)cccc2O1 [Compound 938] | ≤ 100
20 | C[C@@H]1C(=O)N[C@H](Cc2ccc(Cl)cc2)C(=O)NCCCc2ccc(F)cc2OCCN[C@@H](C2CC2)C(=O)N1C [Compound 864] | ≤ 10
21 | C[C@@H]1C(=O)N[C@H](Cc2ccc(O)cc2)C(=O)NCCCc2cccc3c2O[C@H](CC3)CN[C@@H](C2CCCCC2)C(=O)N1C [Compound 1105] | ≤ 1
22 | CC[C@H](C)[C@@H]1NC[C@@H](C)Oc2cccnc2CCCNC(=O)[C@@H](Cc2ccc(O)cc2)NC(=O)[C@@H](C)N(C)C1=O [Compound 1026] | ≤ 100
23 | C[C@@H]1CN[C@@H](C2CC2)C(=O)N(C)[C@H](C)C(=O)N[C@H](Cc2ccccc2)C(=O)NCCCc2ccc(F)cc2O1 [Compound 876] | ≤ 100
24 | C[C@@H]1C(=O)N[C@H](Cc2ccc(Cl)cc2)C(=O)NCCCc2cccc3c2OC(CC3)CN[C@@H](C2CC2)C(=O)N1C (some centres unmarked) [Compound 947] | ≤ 10
25 | C[C@@H]1C(=O)N[C@H](Cc2ccc(O)cc2)C(=O)NCCCc2cccc3c2O[C@@H](CC3)CN[C@@H](C2CC2)C(=O)N1C [Compound 1024] | ≤ 100
26 | CC(C)[C@@H]1NC[C@H](C)Oc2ccccc2CCCNC(=O)[C@@H](Cc2ccccc2)NC(=O)[C@@H](C)N(C)C1=O [Compound 870] | ≤ 500
27 | C[C@@H]1C(=O)N[C@H](Cc2ccc(O)cc2)C(=O)NCCCc2ncccc2OCCN[C@@H](C2CC2)C(=O)N1C [Compound 988] | ≤ 100
28 | CC[C@H](C)[C@@H]1NC[C@@H](C)Oc2ccccc2CCCNC(=O)[C@@H](Cc2ccc(F)cc2)NC(=O)[C@@H](C)N(C)C1=O [Compound 855] | ≤ 100
29 | CC1C(=O)NC(Cc2ccc(O)c(F)c2)C(=O)NCCCc2ncccc2OCCNC(C2CC2)C(=O)N1C (mixture of isomers) [Compound 1078] | ≤ 100
30 | COc1ccc(C[C@H]2NC(=O)[C@@H](C)N(C)C(=O)[C@H](C3CC3)NC[C@@H](C)Oc3ccccc3CCCNC2=O)cc1 [Compound 867] | ≤ 100
31 | CC1C(=O)NC(Cc2ccc(O)cc2)C(=O)NCCCc2c(F)cccc2OCCNC(C2CC2)C(=O)N1C (centres unmarked) [Compound 1110] | ≤ 100
32 | CCC[C@@H]1NC[C@@H](C)Oc2ccccc2CCCNC(=O)[C@@H](Cc2ccc(OC)cc2)NC(=O)[C@@H](C)N(C)C1=O [Compound 866] | ≤ 100

Continued, values first:

Row | Ki [nM] | Structure (SMILES)
33 | ≤ 500 | CC(C)C[C@H]1NC(=O)[C@@H](C)N(C)C(=O)[C@H](C2CC2)NC[C@@H]2CCc3cccc(c3O2)CCCNC1=O [Compound 1015]
34 | ≤ 100 | C[C@@H]1C(=O)N[C@H](Cc2cccs2)C(=O)NCCCc2ncccc2OCCN[C@@H](C2CC2)C(=O)N1C [Compound 995]
35 | ≤ 100 | CC(=O)Oc1ccc(CC2NC(=O)C(C)N(C)C(=O)C(C3CC3)NCC(C)Oc3ccccc3CCCNC2=O)cc1F (mixture of isomers) [Compound 1065]
36 | ≤ 500 | C[C@@H]1CN[C@@H](C2CC2)C(=O)N(C)[C@H](C)C(=O)N[C@H]([C@@H](C)c2ccc(O)cc2)C(=O)NCCCc2ncccc2O1 [Compound 1082]
37 | ≤ 100 | C[C@@H]1CN[C@@H](C2CC2)C(=O)N(C)[C@H](C)C(=O)N[C@H](Cc2cc(F)c(F)c(F)c2)C(=O)NCCCc2ccccc2O1 [Compound 1041]
38 | ≤ 10 | C[C@@H]1C(=O)N[C@H](Cc2ccc(F)cc2)C(=O)NCCCc2ccc(F)c(F)c2OCCN[C@@H](C2CC2)C(=O)N1C [Compound 1100]
39 | > 500 | C[C@@H]1CN[C@@H](C2CC2)C(=O)N(C)[C@H](C)C(=O)N[C@H](C2CC2)C(=O)NCCCc2ccccc2O1 [Compound 1048]
40 | ≤ 100 | C[C@@H]1CN[C@@H](C2CC2)C(=O)N(C)[C@H](C)C(=O)N[C@H](Cc2cccc(O)c2)C(=O)NCCCc2ncccc2O1 [Compound 1079]
41 | ≤ 500 | CC1CNC(C2CC2)C(=O)N(C)C(C)C(=O)NC(C(C)(C)C)C(=O)NCCCc2cccc(F)c2O1 (centres unmarked) [Compound 1044]
42 | ≤ 500 | CO[C@H](C)[C@@H]1NC[C@@H](C)Oc2cccnc2CCCNC(=O)[C@@H](Cc2ccc(F)cc2)NC(=O)[C@@H](C)N(C)C1=O [Compound 1032]
43 | > 500 | C[C@@H]1CN[C@@H](C2CC2)C(=O)N(C)[C@H](C)C(=O)N[C@H](CC(=O)O)C(=O)NCCCc2ccccc2O1 [Compound 1036]
44 | ≤ 100 | C[C@H]1CNC(=O)[C@@H](Cc2ccc(F)cc2)NC(=O)[C@@H](C)N(C)C(=O)[C@H](C2CC2)NC[C@@H](C)Oc2ccccc2C1 [Compound 1005]
45 | ≤ 100 | CC1CNC(C2CC2)C(=O)N(C)C(C)C(=O)NC(CC2CCCC2)C(=O)NCCCc2ccccc2O1 (mixture of isomers) [Compound 1047]
46 | > 500 | CC(C)C[C@H]1NC(=O)[C@@H](C)N(C)C(=O)[C@H](C2CC2)NCCOc2cnccc2CCCNC1=O [Compound 1021]
47 | ≤ 500 | CC[C@H](C)[C@@H]1NCCOc2cnccc2CCCNC(=O)[C@@H](CC(C)C)NC(=O)[C@@H](C)N(C)C1=O [Compound 1022]
48 | ≤ 500 | CC1CNC(C2CC2)C(=O)N(C)C(C)C(=O)NC(Cc2ccccc2O)C(=O)NCCCc2ccccc2O1 (mixture of isomers) [Compound 1101]
49 | ≤ 100 | C[C@@H]1CN[C@@H](C2CC2)C(=O)N(C)[C@H](C)C(=O)N[C@H](Cc2ccccc2)C(=O)NCCCc2ncccc2O1 [Compound 1028]
50 | ≤ 100 | C[C@@H]1C(=O)N[C@H]([C@@H](C)c2ccc(O)cc2)C(=O)NCCCc2nccc3c2O[C@H](CC3)CN[C@@H](C2CC2)C(=O)N1C [Compound 1076]
51 | ≤ 100 | C[C@@H]1C(=O)N[C@H](Cc2ccc(O)cc2)C(=O)N[C@@H](C)CCc2ccccc2OCCN[C@@H](C2CC2)C(=O)N1C [Compound 1083]
52 | ≤ 500 | CC1CNC(C2CC2)C(=O)N(C)C(C)C(=O)NC(Cc2ccccc2O)C(=O)NCCCC2CCCCC2O1 (mixture of isomers) [Compound 1115]
53 | ≤ 1 | CC1CNC(C2CC2)C(=O)N(C)C(C)C(=O)NC(Cc2ccc(F)cc2)C(=O)NCCCC2CCCCC2O1 (mixture of isomers) [Compound 1052]
54 | > 500 | C[C@@H]1CN[C@@H](C2CC2)C(=O)N(C)[C@H](C)C(=O)N[C@H]([C@H](C)c2ccc(O)cc2)C(=O)NCCCc2ncccc2O1 [Compound 1081]
55 | ≤ 10 | CC[C@H](C)[C@@H]1NC[C@@H](C)Oc2c(F)cccc2CCCNC(=O)[C@@H](CC(C)C)NC(=O)[C@@H](C)N(C)C1=O [Compound 981]
56 | ≤ 500 | C[C@@H]1CN[C@@H](C2CC2)C(=O)N(C)[C@H](C)C(=O)N[C@H](C(C)(C)C)C(=O)NCCCc2ccccc2O1 [Compound 1014]
